{"source": "patent US12214058B2", "about": "“Imaging methods using deuterated compounds” (Genentech, Inc., priority 2014, dated 2025)", "key": {"[1]": {"test_system": "tau (NFTs) in human brain tissues", "experiment": "Autoradiography on postmortem human brain tissues", "format": "binding", "experimental": "Autoradiography The tracer [^18F][A] or [^18F][A]-d2 was dissolved in PBS containing 5% DMSO and 5% ethanol at final concentration 40 μCi/mL. Then 0.5 ml of stock solution was transferred to a microscope slide with 5 μm thick freshly dried section of a tissue and incubated for 90 min at room temperature. The slides were washed by dipping into following solutions: PBS for 1 min, 70% ethanol 2 min, 30% ethanol 2 min and PBS 1 min. The samples were dried at room temperature for 30 min and exposed to phosphorimager plate for 20 h. The exposed plates were scanned at 25 μm resolution.\nAutoradiographic evaluation of [^18F][A] and [^18F][A]-d2 was performed using brain tissues collected postmortem from human donors. […] The positive staining was found in grey matter of tissues containing high level of NFTs and high AD-amyloid characterized as Braak score 5. […] The NFT and Aβ-amyloid burden was measured by standard immunohistochemical methods."}, "[2]": {"experiment": "Microsomal stability assay, human liver microsomes", "format": "in vitro ADME", "conditions": "for amount of remaining compound: non-radiolabeled, 40 min", "experimental": "Microsomal stability assays The tracer [^18F][A]-d2 or [^18F][A] was dissolved in potassium phosphate (Kpi) buffer (100 mM) at concentration 500-600 μCi/mL. The non-radioactive 7 and 10 were dissolved in Kpi buffer at 10 μM concentration. The reaction vessel was charged with human or mouse liver microsome suspension (12.5 μL, 20 mg/mL) followed by Kpi buffer (388 μL, 10 mM), NADPH (50 μL, 10 mM) and incubated at 37° C. for 5-10 min. A solution of the radioactive [^18F][A]-d2 or [^18F][A] (50 μL, […]) or non-radioactive 7 or […] (50 μL, 10 μM) were added to the reaction vessel and the mixture was incubated at 37° C. […] The supernatant was analyzed by LCMS (System E)."}, "[3]": {"experiment": "Microsomal stability assay, mouse liver microsomes", "format": "in vitro ADME", "conditions": "5 min; for fraction of unmetabolized compound: non-radiolabeled", "experimental": "(§1) Microsomal stability assays The tracer [^18F][A]-d2 or [^18F][A] was dissolved in potassium phosphate (Kpi) buffer (100 mM) at concentration 500-600 μCi/mL. The non-radioactive 7 and 10 were dissolved in Kpi buffer at 10 μM concentration. The reaction vessel was charged with human or mouse liver microsome suspension (12.5 μL, 20 mg/mL) followed by Kpi buffer (388 μL, 10 mM), NADPH (50 μL, 10 mM) and incubated at 37° C. for 5-10 min. A solution of the radioactive [^18F][A]-d2 or [^18F][A] (50 μL, 250-300 μCi) or non-radioactive 7 or 8 (50 μL, 10 μM) were added to the reaction vessel and the mixture was incubated at 37° C. Aliquots (50 μL) of the reaction mixture were taken at 5, 15 and 45 minutes post addition of the tested compound, mixed with ice-cold acetonitrile (100 μL) and centrifuged. The supernatant was analyzed by LCMS (System E)."}, "[4]": {"experiment": "Microsomal stability assay, rhesus liver microsomes", "format": "in vitro ADME", "experimental": "as §1, with “E). The radiolabeled tracers [^18F][A] and [^18F][A]-d2 (n=3) were incubated with human, rhesus or mouse liver microsome suspension with or without NADPH at 37° C. and the mixture was analyzed for a presence of radioactive metabolites at 5, 15 and 45 min. In the presence of mouse and rhesus liver microsomes, both the [^18F][A] and [^18F][A]-d2 metabolized rapidly to ^18F-fluoride (retention time (rt)=0.38 min), and two radioactive metabolites M2 and M1 (rt=1.2 and 1.4 min). […]” for “E).”"}, "[5]": {"experiment": "Dynamic microPET imaging in mice", "format": "in vivo, mice (C57BL/6)", "experimental": "MicroPET Imaging The PET imaging was performed on Inveon PET/CT scanner (Siemens Medical Solutions USA Inc.). Animals anesthetized with sevoflurane were placed head-first, prone position on the scanner bed and dynamic 45 min scans were initiated. Approximately 3.7 MBq of ^18F-radiolabeled tracer in isotonic solution (100-130 μL) was administered as 60 second intravenous infusion via the tail vein. Body temperature was measured by a rectal probe and maintained with warm air flow at 37° C. Full-body iterative image reconstructions were obtained using maximum a posteriori algorithm (MAP, hyperparameter β 0.05) and corrected for signal attenuation using the tissue density obtained from CT. Projections were created with PMOD 3.305 (PMOD Technologies, Ltd., Zurich, Switzerland) and used to obtain quantitative activity levels in each organ of interest using region-of-interest analysis."}, "[6]": {"molecular_target": "tau aggregates in AD patient tissues", "conditions": "cited from earlier work"}}, "note": "pKd: −log10 of the molar value.", "data": [{"compound": "[18F]CCC1CCN(c2ccn3c(n2)nc2ccccc23)CC1", "note": "[[^18F][A], 2-(1-(benzo[4,5]imidazo[1,2-a]pyrimidine-2-yl)piperidin-4-yl)-1-[^18F]fluoroethane, reference compound]", "values": [{"measurement": "staining of negative control tissues", "setting": "[1]; high or moderate amyloid burden but no NFTs, Braak score 3 or 2", "result": "not positively stained"}, {"measurement": "autoradiographic binding pattern", "setting": "[1]; human brain tissues, positive staining in grey matter with high NFTs, Braak score 5", "result": "tau specific binding patterns"}, {"measurement": "fraction attributed to parent compound", "setting": "[2]; radiolabeled, 45 min incubation, n=3", "result": "35.7±0.9", "unit": "%"}, {"measurement": "amount of parent compound", "setting": "[3]; radiolabeled, n=3", "result": "1.6±0.9", "unit": "%"}, {"measurement": "stability of parent compound compared with mouse liver microsomes", "setting": "[4]", "result": "slightly more stable"}, {"measurement": "uptake in liver and kidneys, comparison of the two tracers", "setting": "[5]; n=6", "result": "indistinguishable"}, {"measurement": "peak uptake in brain", "setting": "[5]; n=6, i.v., dynamic PET", "result": "8.3±2.0", "unit": "% ID/g"}, {"measurement": "pKd", "setting": "[6]; AD patient tissues, read-out: affinity for tau aggregates in AD patient tissues", "result": 7.66}, {"measurement": "selectivity for tau over Aβ amyloid", "setting": "[6]", "result": 27, "unit": "fold"}]}, {"compound": "[2H]C([2H])(F)CC1CCN(c2ccn3c(n2)nc2ccccc23)CC1", "note": "[[A]-d2, 1,1-dideutero-2-(1-(benzo[4,5]imidazo[1,2-a]pyrimidine-2-yl)piperidin-4-yl)-1-fluoroethane]", "values": [{"measurement": "amount of remaining compound", "setting": "[2]", "result": 56, "unit": "%"}, {"measurement": "fraction of unmetabolized compound", "setting": "[3]", "result": 11, "unit": "%"}]}, {"compound": "FCCC1CCN(c2ccn3c(n2)nc2ccccc23)CC1", "note": "[[A], 2-(1-(benzo[4,5]imidazo[1,2-a]pyrimidine-2-yl)piperidin-4-yl)-1-fluoroethane, reference compound]", "values": [{"measurement": "amount of remaining compound", "setting": "[2]", "result": 15, "unit": "%"}, {"measurement": "fraction of unmetabolized compound", "setting": "[3]", "result": 2, "unit": "%"}, {"measurement": "bone uptake", "setting": "[5]; n=6, 30-45 min post tracer injection", "result": "31.2±4.8", "unit": "% ID/g"}]}]}
